This note sets out measurements from patent US12209144B2, “Cyclic peptides as proprotein convertase subtilisin/kexin type 9 (PCSK9) inhibitors for the treatment of metabolic disorders” (Novartis AG, priority 2018, dated 2025).

The structures appear in SMILES notation. Bridge positions count the residues as written; N and C are the ends. Square brackets hold non-standard residues; d marks the D form. Peptide text beside a SMILES is read from it. Bip = N[C@@H](Cc1ccc(-c2ccccc2)cc1)C(=O)O; NMeE = CN[C@@H](CCC(=O)O)C(=O)O; NMeA = CN[C@@H](C)C(=O)O

Chain of human PCSK9 (Q8NBP7 153-692): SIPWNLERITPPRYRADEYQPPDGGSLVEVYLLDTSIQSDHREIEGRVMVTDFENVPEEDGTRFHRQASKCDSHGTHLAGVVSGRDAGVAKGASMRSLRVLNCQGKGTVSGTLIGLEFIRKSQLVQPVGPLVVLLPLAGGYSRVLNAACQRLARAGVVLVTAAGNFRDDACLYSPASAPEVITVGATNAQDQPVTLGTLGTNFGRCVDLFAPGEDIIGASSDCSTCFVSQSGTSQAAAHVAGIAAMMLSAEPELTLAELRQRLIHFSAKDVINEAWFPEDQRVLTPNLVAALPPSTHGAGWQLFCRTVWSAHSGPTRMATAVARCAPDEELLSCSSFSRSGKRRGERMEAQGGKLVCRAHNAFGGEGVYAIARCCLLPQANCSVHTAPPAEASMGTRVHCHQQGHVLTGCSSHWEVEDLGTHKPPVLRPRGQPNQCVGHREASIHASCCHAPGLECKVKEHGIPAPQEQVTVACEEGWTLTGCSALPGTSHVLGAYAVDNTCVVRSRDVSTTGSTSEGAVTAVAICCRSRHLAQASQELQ
Chain of human PCSK9 (Q8NBP7 31-152 partner limits assumed): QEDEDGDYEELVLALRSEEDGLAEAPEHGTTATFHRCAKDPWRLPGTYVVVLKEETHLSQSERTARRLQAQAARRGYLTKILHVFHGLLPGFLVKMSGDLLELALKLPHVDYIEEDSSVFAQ

The assay has as its target human PCSK9 (Homo sapiens, UniProt Q8NBP7). Kind of assay: PCSK9 ligand binding assay (TR-FRET): interference with binding of human PCSK9 to human LDLR. To be noted: PCSK9 FRET assay, efficacy (Amax); 0% = DMSO, 100% = 1 uM unlabeled human PCSK9.
The molecule `CCNC(=O)[C@@H]1CSCC(=O)N[C@@H](Cc2ccccc2)C(=O)N[C@@H](C(C)C)C(=O)N[C@@H](CC(N)=O)C(=O)N[C@@H]([C@@H](C)O)C(=O)N[C@@H]([C@@H](C)O)C(=O)N[C@@H](Cc2ccccc2)C(=O)N(C)[C@@H](C)C(=O)N[C@@H](Cc2ccc(-c3ccccc3)cc2)C(=O)N(C)[C@@H](C)C(=O)N(C)[C@@H](CCC(=O)O)C(=O)N[C@@H](C)C(=O)N2CCC[C@H]2C(=O)N1` [Example 3-1, 3-((3R,9S,12S,15S,18S,21S,24S,27S,30S,33S,36S,39S,44aS)-30-([1,1′-biphenyl]-4-ylmethyl)-15-(2-amino-2-oxoethyl)-9,24-dibenzyl-3-(ethylcarbamoyl)-18,21-bis((R)-1-hydroxyethyl)-12-isopropyl-26,27,32,33,35,39-hexamethyl-1,7,10,13,16,19,22,25,28,31,34,37,40-tridecaoxodotetracontahydro-6H-pyrrolo[2,1-f][1]thia[4,7,10,13,16,19,22,25,28,31,34,37,40]tridecaazacyclodotetracontin-36-yl)propanoic acid] ({CH2CO}-FVNTTF[NMeA][Bip][NMeA][NMeE]APC-NHEt; thioether N-13) displayed a Maximum % inhibition of 61%.

`CCNC(=O)[C@@H]1CSCC(=O)N[C@@H](Cc2ccccc2)C(=O)N[C@@H](C(C)C)C(=O)N2CCC[C@H]2C(=O)N[C@@H]([C@@H](C)O)C(=O)N[C@@H]([C@@H](C)O)C(=O)N[C@@H](Cc2ccccc2)C(=O)N(C)[C@@H](C)C(=O)N[C@@H](Cc2ccc(-c3ccccc3)cc2)C(=O)N(C)[C@@H](C)C(=O)N[C@@H](CCC(=O)O)C(=O)N[C@@H](C)C(=O)N2CCC[C@H]2C(=O)N1` [Example 3-2, Ac*-F-V-P-T-T-F-(N-Me)A-B-(N-Me)A-E-A-P-C*-NHEt] ({CH2CO}-FVPTTF[NMeA][Bip][NMeA]EAPC-NHEt; thioether N-13) returned a Maximum % inhibition of 83%.

`CCNC(=O)[C@@H]1CSCC(=O)N[C@@H](Cc2ccccc2)C(=O)N[C@@H](C(C)C)C(=O)N2CCC[C@H]2C(=O)N[C@@H]([C@@H](C)O)C(=O)N[C@@H]([C@@H](C)O)C(=O)N[C@@H](Cc2ccc(-c3ccccc3)cc2)C(=O)N(C)[C@@H](C)C(=O)N[C@@H](Cc2ccc(-c3ccccc3)cc2)C(=O)N(C)[C@@H](C)C(=O)N[C@@H](CCC(=O)O)C(=O)N[C@@H](C)C(=O)N2CCC[C@H]2C(=O)N1` [Example 3-3, Ac*-F-V-P-T-T-B-(N-Me)A-B-(N-Me)A-E-A-P-C*-NHEt]: the Maximum % inhibition was determined as 87%.

`CCNC(=O)[C@@H]1CSCC(=O)N[C@@H](Cc2ccccc2)C(=O)N[C@@H](C(C)C)C(=O)N2CCC[C@H]2C(=O)N[C@@H]([C@@H](C)O)C(=O)N[C@@H]([C@@H](C)O)C(=O)N[C@@H](Cc2ccc(-c3ccccc3)cc2)C(=O)N(C)[C@@H](C)C(=O)N[C@@H](Cc2ccc(-c3ccccc3)cc2)C(=O)N(C)[C@@H](C)C(=O)N[C@@H](C)C(=O)N[C@@H](C)C(=O)N2CCC[C@H]2C(=O)N1` [Example 3-4, Ac*-F-V-P-T-T-B-(N-Me)A-B-(N-Me)A-A-A-P-C*-NHEt] ({CH2CO}-FVPTT[Bip][NMeA][Bip][NMeA]AAPC-NHEt; thioether N-13) gave a Maximum % inhibition of 49%.
